Laboratory results published in article PMC9552147 (Nature Communications, 2022).
Where “and” joins values, the source holds several entries; their conditions need not be identical. Identical values can stand only once.

Tested on: M. tuberculosis resistant mutant (lysS S491 insertion)
Assay type: cell-based, Mycobacterium tuberculosis

Compound	Mutant (S491)MIC	Mutant (S491)MIC, Ave [µM]	fold resistance of the resistant mutant strain compared to wild-type H37Rv (MIC)
Nc1cc2c(c(F)n1)C(=O)N(C1CCCCC1)C2 [Compound 2]	0.11 µM and 0.095 µM	0.10	–
NNC(=O)c1ccncc1 [isoniazid]	–	–	equivalent sensitivity
